In this test the target is T1, KATP channels (Homo sapiens, UniProt O60706+Q14654).
T1 construct: TE671 human medulloblastoma cells were obtained from ATCC; host or cells: TE671 human medulloblastoma cells
The test can be described thus: Potassium Channel Assay (FLIPR membrane potential dye, TE671 cells). It is filed as cell-based. Particulars: TE671 human medulloblastoma cells, room temperature, fluorescence change monitored for 3 minutes. The procedure:
TE671 human medulloblastoma cells were obtained from ATCC and grown in Dulbecco's modified Eagle's medium (DMEM) supplemented with 10% fetal bovine serum, 100 U/ml penicillin and 100 U/ml streptomycine.
The day before testing, the cells were plated in black 96-well plates at 50K/well. On the day of testing, the growth media was removed, then 100 μl of FLIPR buffer (20 mM HEPES, 120 mM NaCl, 2 mM KCl, 2 mM CaCl2, 1 mM MgCl2, 5 mM Glucose) and 100 μl of Membrane Potential Assay Dye (Molecular Devices) dissolved in FLIPR buffer were added to each well. The cells were incubated at room temperature for 15 to 30 min.
The effect of test compounds on KATP channels were evaluated on a fluorometric imaging plate reader (FLIPR, Molecular Devices) at room temperature. After a baseline period, 50 μl of 5× stock solution of test compound prepared in FLIPR buffer was added and fluorescence change was monitored for 3 minutes. After this reading, glyburide, a KATP channel blocker, was added to a final concentration of 5 μM to check the specificity of the test compound as a KATP channel opener. Hyperpolarization resulting from KATP channel opening was observed as a decrease in fluorescence intensity.
Representative compounds of the present invention were tested according to the procedure described above, with results as listed in Table 7 below.

The values below come from patent publication US7671065B2, “Pyridine derivatives as potassium ion channel openers” (Janssen Pharmaceutica N.V., priority 2005, dated 2010).

pEC50: −log10 of the molar value.

T1 sequence (Q14654 whole entry): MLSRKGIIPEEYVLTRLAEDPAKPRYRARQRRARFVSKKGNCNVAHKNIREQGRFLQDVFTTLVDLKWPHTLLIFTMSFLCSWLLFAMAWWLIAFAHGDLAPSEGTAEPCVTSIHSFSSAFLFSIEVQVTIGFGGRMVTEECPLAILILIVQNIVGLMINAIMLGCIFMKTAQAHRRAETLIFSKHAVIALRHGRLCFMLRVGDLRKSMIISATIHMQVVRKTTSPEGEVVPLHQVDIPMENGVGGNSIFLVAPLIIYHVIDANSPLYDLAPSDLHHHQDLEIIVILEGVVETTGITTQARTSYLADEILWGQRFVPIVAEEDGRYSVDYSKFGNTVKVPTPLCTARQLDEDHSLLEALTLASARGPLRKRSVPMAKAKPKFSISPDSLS
T1 sequence (O60706 1-1549 isoform O60706-2): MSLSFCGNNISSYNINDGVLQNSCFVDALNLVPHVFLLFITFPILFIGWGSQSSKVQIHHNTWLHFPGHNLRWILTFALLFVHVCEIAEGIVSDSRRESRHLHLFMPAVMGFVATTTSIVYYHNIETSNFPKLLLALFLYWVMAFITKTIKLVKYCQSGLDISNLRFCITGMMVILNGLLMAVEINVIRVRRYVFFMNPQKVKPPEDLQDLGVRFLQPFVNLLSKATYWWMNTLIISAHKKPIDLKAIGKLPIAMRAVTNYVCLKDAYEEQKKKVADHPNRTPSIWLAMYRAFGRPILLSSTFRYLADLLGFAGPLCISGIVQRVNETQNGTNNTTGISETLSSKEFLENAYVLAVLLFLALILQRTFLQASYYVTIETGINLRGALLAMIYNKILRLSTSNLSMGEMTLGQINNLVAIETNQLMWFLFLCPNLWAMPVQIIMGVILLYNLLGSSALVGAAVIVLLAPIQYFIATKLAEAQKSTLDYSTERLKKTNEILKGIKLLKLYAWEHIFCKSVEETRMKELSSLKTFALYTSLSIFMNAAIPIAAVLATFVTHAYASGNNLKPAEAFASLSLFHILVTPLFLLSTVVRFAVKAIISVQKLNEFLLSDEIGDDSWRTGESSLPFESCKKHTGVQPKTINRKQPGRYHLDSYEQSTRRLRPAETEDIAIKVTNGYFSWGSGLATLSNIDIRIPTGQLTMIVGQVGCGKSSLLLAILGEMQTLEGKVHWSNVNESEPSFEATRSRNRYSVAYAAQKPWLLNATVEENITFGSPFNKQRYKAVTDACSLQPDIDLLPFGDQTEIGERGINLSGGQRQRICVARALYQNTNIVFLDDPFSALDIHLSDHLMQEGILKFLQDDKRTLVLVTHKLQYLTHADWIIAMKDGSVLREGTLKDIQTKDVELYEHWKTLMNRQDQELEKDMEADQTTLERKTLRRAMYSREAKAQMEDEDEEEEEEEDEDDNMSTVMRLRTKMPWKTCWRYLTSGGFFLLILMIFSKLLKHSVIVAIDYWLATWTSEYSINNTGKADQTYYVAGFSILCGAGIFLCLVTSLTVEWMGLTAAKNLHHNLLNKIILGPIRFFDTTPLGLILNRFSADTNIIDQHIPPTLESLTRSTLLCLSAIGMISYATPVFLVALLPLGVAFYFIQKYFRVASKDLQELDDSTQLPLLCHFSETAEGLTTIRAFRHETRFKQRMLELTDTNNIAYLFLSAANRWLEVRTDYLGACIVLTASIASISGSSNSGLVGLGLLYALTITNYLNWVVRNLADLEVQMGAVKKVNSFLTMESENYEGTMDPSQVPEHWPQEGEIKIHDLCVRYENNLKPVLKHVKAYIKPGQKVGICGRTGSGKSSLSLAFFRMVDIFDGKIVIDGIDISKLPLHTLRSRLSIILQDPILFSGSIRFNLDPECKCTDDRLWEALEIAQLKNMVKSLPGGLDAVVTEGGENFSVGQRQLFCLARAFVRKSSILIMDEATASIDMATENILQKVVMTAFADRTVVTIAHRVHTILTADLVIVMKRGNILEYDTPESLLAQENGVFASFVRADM

`CCOC(=O)c1cnc2cc(C(F)(F)F)ccc2c1-c1cc(C)cc(OC)c1` [Compound 2, 4-(3-Methoxy-5-methyl-phenyl)-7-trifluoromethyl-quinoline-3-carboxylic acid ethyl ester]: the “% Stimulation” value amounted to 23% and the pEC50 was under 4.52.

The compound `N#Cc1cccc(-c2ccncc2C(O)c2cccc(F)c2)c1` (centres unmarked) [Compound 21, 3-{3-[(3-Fluoro-phenyl)-hydroxy-methyl]-pyridin-4-yl}-benzonitrile] gave a pEC50 of 4.63.

Take `N#Cc1cccc(C(O)c2ccncc2CO)c1` (centres unmarked) [Compound 57, 3-[Hydroxy-(3-hydroxymethyl-pyridin-4-yl)-methyl]-benzonitrile]: the “% Stimulation” value was found to be 16% and the pEC50 is under 4.52.

In the case of `Cc1ccc(C(O)c2cnccc2-c2cccc(C#N)c2)cc1` (centres unmarked) [Compound 32, 3-{3-[Hydroxy-(4-methyl-phenyl)-methyl]-pyridin-4-yl}-benzonitrile], the negative-log EC50 (pEC50) is 5.07.

Compound `Cc1ccccc1C(O)c1cnccc1-c1cccc(C#N)c1` (centres unmarked) [Compound 31, 3-{3-[Hydroxy-(2-methyl-phenyl)-methyl]-pyridin-4-yl}-benzonitrile] gave a negative logarithm of the EC50 (pEC50) of 4.82.

`CN(C)c1ccc(C(O)c2cnccc2C(=O)c2ccccc2)cc1` (centres unmarked) [Compound 44, {3-[(4-Dimethylamino-phenyl)-hydroxy-methyl]-pyridin-4-yl}-phenyl-methanone] showed a pEC50 of 4.76.

With `CC(C)C(O)c1cnccc1Br` (centres unmarked) [Compound 63, 1-(4-Bromo-pyridin-3-yl)-2-methyl-propan-1-ol], the pEC50 is 5.10.

The compound `N#Cc1cccc(-c2ccncc2C(O)c2ccc(Cl)c(Cl)c2)c1` (centres unmarked) [Compound 24, 3-{3-[(3,4-Dichloro-phenyl)-hydroxy-methyl]-pyridin-4-yl}-benzonitrile] gave a pEC50 of 4.84.

The compound `N#Cc1cccc(-c2ccncc2C(O)c2ccc(F)c(F)c2)c1` (centres unmarked) [Compound 23, 3-{3-[(3,4-Difluoro-Phenyl)-hydroxy-methyl]-pyridin-4-yl}-benzonitrile] had a pEC50 of 4.94.

`N#Cc1cccc(-c2ccncc2C=O)c1` [Compound 51, 3-(3-Formyl-pyridin-4-yl)-benzonitrile]: the “% Stimulation” value is 48% and the negative-log EC50 (pEC50) was under 4.52.

Take `N#Cc1cccc(C2OCc3cnccc32)c1` (centres unmarked) [Compound 66, 3-(1,3-Dihydro-furor[3,4-c]pyridin-1-yl)-benzonitrile]: the pEC50 is 5.09.

For the compound `COc1ccc(C=O)cc1-c1ccncc1C=O` [Compound 53, 4-(5-Formyl-2-methoxy-phenyl)-pyridine-3-carbaldehyde], the “% Stimulation” value was determined as 30% and the pEC50 was under 4.52.

Compound `N#Cc1cccc(C(=O)c2ccncc2C(O)c2ccccc2)c1` (centres unmarked) [Compound 48, 3-[3-(Hydroxy-phenyl-methyl)-pyridine-4-carbonyl]-benzonitrile] had a pEC50 of 4.84.

Consider `N#Cc1cccc(C2OC(O)c3cnccc32)c1` (centres unmarked) [Compound 55, 3-(3-Hydroxy-1,3-dihydro-furor[3,4-c]pyridin-1-yl)-benzonitrile], for which the “% Stimulation” value is listed as 24% and the pEC50 is under 4.52.

`OCc1cnccc1C(O)c1ccccc1` (centres unmarked) [Compound 56, (3-Hydroxymethyl-pyridin-4-yl)-phenyl-methanol]: the “% Stimulation” value came out at 33% and the pEC50 was under 4.52.

With `COc1ccc(C(O)c2cnccc2C(=O)c2ccccc2)cc1F` (centres unmarked) [Compound 45, {3-[(3-Fluoro-4-methoxy-phenyl)-hydroxy-methyl]-pyridin-4-yl}-phenyl-methanone], the negative-log EC50 (pEC50) is 4.94.

`CCOC(=O)c1cnc2cc(C(F)(F)F)ccc2c1-c1cc(C=O)ccc1OC` [Compound 9, 4-(5-Formyl-2-methoxy-phenyl)-7-trifluoromethyl-quinoline-3-carboxylic acid ethyl ester]: the negative-log EC50 (pEC50) was 5.11.

Consider `N#Cc1cccc(-c2ccncc2C(O)c2ccc(F)cc2)c1` (centres unmarked) [Compound 20, 3-{3-[(4-Fluoro-phenyl)-hydroxy-methyl]-pyridin-4-yl}-benzonitrile], for which the pEC50 is 4.71.

For `CCOC(=O)c1cnc2cc(C(F)(F)F)ccc2c1-c1ccc(-c2ccccc2)cc1` [Compound 5, 4-Biphenyl-4-yl-7-trifluoromethyl-quinoline-3-carboxylic acid ethyl ester], the “% Stimulation” value was 33% and the negative logarithm of the EC50 (pEC50) was under 4.52.

As for `CCOC(=O)c1cnc2cc(C(F)(F)F)ccc2c1-c1cccc(C=O)c1` [Compound 11, 4-(3-Formyl-phenyl)-7-trifluoromethyl-quinoline-3-carboxylic acid ethyl ester], the “% Stimulation” value is on record as 2% and the pEC50 was under 4.52.

As to `CCOC(=O)c1cnc2cc(C(F)(F)F)ccc2c1-c1ccccc1` [Compound 6, 4-Phenyl-7-trifluoromethyl-quinoline-3-carboxylic acid ethyl ester], the “% Stimulation” value worked out at 42% and the negative logarithm of the EC50 (pEC50) is under 4.52.

Compound `N#Cc1cccc(-c2ccncc2C(O)c2ccc(Cl)cc2)c1` (centres unmarked) [Compound 26, 3-{3-[(4-Chloro-phenyl)-hydroxy-methyl]-pyridin-4-yl}-benzonitrile] showed a pEC50 of 4.99.

In the case of `CCOC(=O)c1cnc2cc(C(F)(F)F)ccc2c1-c1cccc(C#N)c1` [Compound 1, 4-(3-Cyano-phenyl)-7-trifluoromethyl-quinoline-3-carboxylic acid ethyl ester], the “% Stimulation” value worked out at 36% and the pEC50 is under 4.52.

In the case of `N#Cc1cccc(-c2ccncc2C(O)C(F)(F)F)c1` (centres unmarked) [Compound 39, 3-[3-(2,2,2-Trifluoro-1-hydroxy-ethyl)-pyridin-4-yl]-benzonitrile], the negative logarithm of the EC50 (pEC50) is 4.98.

As for `O=C(c1ccccc1)c1ccncc1C(O)c1ccccc1` (centres unmarked) [Compound 43, [3-(Hydroxy-phenyl-methyl)-pyridin-4-yl]-phenyl-methanone], the pEC50 is 4.76.

With `CCOC(=O)c1cnc2cc(C(F)(F)F)ccc2c1-c1cccc(C(C)=O)c1` [Compound 7, 4-(3-Acetyl-phenyl)-7-trifluoromethyl-quinoline-3-carboxylic acid ethyl ester], the “% Stimulation” value is 2% and the negative-log EC50 (pEC50) was under 4.52.

Turning to `COc1cccc(C(O)c2cnccc2-c2cccc(C#N)c2)c1` (centres unmarked) [Compound 29, 3-{3-[Hydroxy-(3-methoxy-phenyl)-methyl]-pyridin-4-yl}-benzonitrile], the pEC50 was 4.86.

In the case of `CC(O)c1cnccc1-c1cccc(C#N)c1` (centres unmarked) [Compound 52, 3-[3-(1-Hydroxy-ethyl)-pyridin-4-yl]-benzonitrile], the pEC50 is 4.76.

In the case of `CCOC(=O)c1cnc2cc(C(F)(F)F)ccc2c1-c1cc(C(F)(F)F)cc(C(F)(F)F)c1` [Compound 3, 4-(3,5-Bis-trifluoromethyl-phenyl)-7-trifluoromethyl-quinoline-3-carboxylic acid ethyl ester], the “% Stimulation” value was determined as 19% and the pEC50 was under 4.52.

Turning to `COc1ccc(F)cc1C(O)c1cnccc1-c1cccc(C#N)c1` (centres unmarked) [Compound 36, 3-{3-[(5-Fluoro-2-methoxy-phenyl)-hydroxy-methyl]-pyridin-4-yl}-benzonitrile], the “% Stimulation” value came out at 24% and the pEC50 was under 4.52.

As for `CCOC(=O)c1cnc2cc(C(F)(F)F)ccc2c1-c1cccc(CO)c1` [Compound 12, 4-(3-Hydroxymethyl-phenyl)-7-trifluoromethyl-quinoline-3-carboxylic acid ethyl ester], the “% Stimulation” value came to 20% and the pEC50 was under 4.52.

On to `Cc1ccc(F)cc1C(O)c1cnccc1-c1cccc(C#N)c1` (centres unmarked) [Compound 38, 3-{3-[(5-Fluoro-2-methyl-phenyl)-hydroxy-methyl]-pyridin-4-yl}-benzonitrile], for which the “% Stimulation” value was 63% and the pEC50 is under 4.52.

On to `CCOC(=O)c1cnc2cc(C(F)(F)F)ccc2c1-c1cc(CO)ccc1OC` [Compound 14, 4-(5-Hydroxymethyl-2-methoxy-phenyl)-7-trifluoromethyl-quinoline-3-carboxylic acid ethyl ester], for which the pEC50 was 5.34.

For `Cc1ccc(C(O)c2cnccc2-c2cccc(C#N)c2)cc1F` (centres unmarked) [Compound 22, 3-{3-[(3-Fluoro-4-methyl-phenyl)-hydroxy-methyl]-pyridin-4-yl}-benzonitrile], the negative logarithm of the EC50 (pEC50) was 4.82.

As to `OC1OC(c2ccccc2)c2ccncc21` (centres unmarked) [Compound 65, 1-Phenyl-1,3-dihydro-furo[3,4-c]pyridin-3-ol], the “% Stimulation” value was 34% and the pEC50 is under 4.52.

For the compound `CCOC(=O)c1cnc2cc(C(F)(F)F)ccc2c1-c1cc(C(F)(F)F)ccc1F` [Compound 8, 4-(2-Fluoro-5-trifluoromethyl-phenyl)-7-trifluoromethyl-quinoline-3-carboxylic acid ethyl ester], the “% Stimulation” value is listed as 31% and the negative logarithm of the EC50 (pEC50) is under 4.52.

By pEC50 is commonly meant the EC50 on a negative log10 scale, so that one unit is a factor of ten. Read a high pEC50 as a low EC50.
